We go through five compounds from patent US4032656A, “Aromatic prostaglandin derivatives” (SmithKline Corporation, priority 1975, dated 1977).

One assay relates to PGE2 diarrhea in mice. Put plainly: Antagonism of diarrhea induced by prostaglandin E2 (PGE2). The class given is in vivo. The settings on record: 20 mg./kg., subcutaneously 15 minutes prior to intraperitoneal PGE2, examined every 15 minutes for one hour. As for the experimental part:
The antagonism of diarrhea induced by prostaglandin E2 (PGE2) was determined by employing the modified standard animal pharmacological test procedure as reported in Intra Science Chem. Rept, 6:1-9, 1972 and Annals of the New York Academy of Sciences, 180:386-95, 1971. Briefly the test comprises administering the test compounds subcutaneously 15 minutes prior to an intraperitoneal injection of PGE2. Each animal is examined for diarrhea (which results after the administration of PGE2) every 15 minutes for one hour post-drug. Polyphloretin phosphate and 7 oxa-13-prostynoic acid, both well known antagonists of prostaglandin induced diarrhea, were employed as reference compounds.

Another assay concerns prostaglandin synthesis. Put plainly: Inhibition of prostaglandin synthesis (arachidonic acid-dependent formation of adrenochrome from L-epinephrine during prostaglandin biosynthesis; Takeguchi and Sih). The class given is biochemical. The settings on record: for IC50: read-out: ID50 (the source's name). From the text: The prostaglandin synthesis inhibition method as employed is reported by Takeguchi and Sih, Prostaglandins, 2, 169, 1972. The principle entails the arachidonic acid-dependent formation of adrenochrome from L-epinephrine during prostaglandin biosynthesis. Indomethacin, phenylbutazone and aspirin were used as reference compounds.

The mark [1] stands for this setting: prostaglandin synthesis inhibition.

As for `CCCCCC(O)/C=C/c1ccccc1CCCCCCC(=O)OC` (stereo not drawn) [1-(6-carbomethoxyhexyl)-2-(3-hydroxy-trans-1-octenyl)benzene], in the assay with PGE2 diarrhea in mice, the “inhibition of PGE2 diarrhea in mice” value worked out at 53%.

`CCCCCC(O)/C=C/c1ccccc1CCCCCCC(=O)O` (stereo not drawn) [1-(6-carboxyhexyl)-2-(3-hydroxy-trans-1-octenyl)benzene]: the “inhibition of prostaglandin synthesis” value with prostaglandin synthesis (at 1000 μM) was determined as 100%. Also, the IC50 with prostaglandin synthesis (setting [1]) was 410 µM. For the same compound, the “potency as inhibitor relative to aspirin” value in the assay with prostaglandin synthesis (ratio of ID50's, prostaglandin synthesis inhibition, vs aspirin) is given as “nine times as potent”. The “potency as inhibitor relative to phenylbutazone” value with prostaglandin synthesis (ratio of ID50's, prostaglandin synthesis inhibition, vs phenylbutazone) is reported as “twice as potent”. Take `CC(=O)Oc1ccccc1C(=O)O` [aspirin, reference compound]: the IC50 in the assay on prostaglandin synthesis (setting [1]) turned out to be 3700 µM. Still for that read-out and setting: in the case of `CCCCC1C(=O)N(c2ccccc2)N(c2ccccc2)C1=O` [phenylbutazone, reference compound] it was 875 µM. On to “polyphloretin phosphate [reference compound]”, for which the “inhibition of PGE2 diarrhea in mice” value in the assay with PGE2 diarrhea in mice is recorded as 36%.
